The test system of test [1] is A549 cells. The test can be described thus: A549 colony-formation assay. It counts as cell-based. The conditions noted are these: 7 days, crystal violet. The protocol: A549 Colony-Formation Assay
A549 cells were seeded in clear, Nunc™ Edge 2.0 96 -w ell plates (Thermo Scientific) at 1000 cells per well and incubated at 37°C in DMEM. After 24 h cells were treated with test compounds from 10 µM to 100 nM , with a final DM SO of 0.1%. The cells were left to grow until DM SO -treated wells reached ~100% confluence (~8 days), at which point they were washed with PBS, fixed with 100% MeOH (30 min 4°C), stained with 0.1% crystal violet (30 min at r.t.) and left to dry overnight. Once dried plates were imaged on an Epson Perfection V800 scanner, at a resolution of 1200 DPI and in 48 -bit colour.
For dose-response curves, crystal-violet dye was extracted by the addition of 200 µl 1% SDS to each well, and incubation for 3 h at r.t. The absorbance at 595nm of each well was measured on a Pherastar FS (BMG), normalised for each compound and plotted against compound concentration.
(1 picture or pasted object on this page, not shown here)

For test [2], the target named is T1, VBC and Brd2BD1 (Homo sapiens, UniProt P25440+P40337).
T1 construct: VHL (54–213), ElonginC (17–112) and; Brd2BD1 (71–194),; His6 (N, cleaved yes); made in house; host or cells: E. coli BL21(DE3)
T1 sequence (P40337 54-213): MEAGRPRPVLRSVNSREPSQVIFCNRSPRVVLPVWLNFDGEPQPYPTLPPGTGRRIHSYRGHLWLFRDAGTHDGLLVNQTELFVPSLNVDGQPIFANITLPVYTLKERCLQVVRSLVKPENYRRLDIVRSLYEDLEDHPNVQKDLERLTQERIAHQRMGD
T1 sequence (Q15369 17-112 partner limits assumed): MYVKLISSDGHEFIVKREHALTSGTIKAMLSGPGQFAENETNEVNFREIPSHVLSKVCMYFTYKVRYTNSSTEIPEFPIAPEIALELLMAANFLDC
T1 sequence (Q15370 1-104 partner limits assumed): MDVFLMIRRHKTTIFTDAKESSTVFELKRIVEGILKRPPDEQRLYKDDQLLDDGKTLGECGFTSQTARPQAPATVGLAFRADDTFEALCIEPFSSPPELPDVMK
T1 sequence (P25440 71-194): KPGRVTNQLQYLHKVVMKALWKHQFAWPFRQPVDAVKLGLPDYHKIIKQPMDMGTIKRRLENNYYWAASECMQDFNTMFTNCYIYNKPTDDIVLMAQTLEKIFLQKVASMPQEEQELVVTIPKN
The test can be described thus: ITC ternary complex formation, VBC titrated into PROTAC:Brd2BD1. Type of test: binding. The settings on record: for α (cooperativity): Kd binary,VBC/Kd ternary; for α (cooperativity) / ΔΔG: Brd2BD1; for Kd / ΔG / ΔH / –TΔS: PROTAC:Brd2BD1 in cell, VBC in syringe; for ΔΔG: ternary vs binary. From the text:
structure (C2 R, C3 S, C4 R) assumed on the basis of unchanging stereogenic centres in the synthesis.
Final R(F) = 0.033, wR(F 2) = 0.085 for 275 parameters and 3901 reflections with I > 2σ(I) (corresponding R-values based on all 4067 reflections = 0.035 and 0.086, respectively), CCDC […]
Protein expression and purification.
Wild-type versions of human proteins VHL (UniProt accession number: P40337), ElonginC […]
expression. For expression of VBC, N-terminally His6-tagged VHL (54–213), ElonginC (17–112) and ElonginB (1–104) were co- expressed in Escherichia coli BL21(DE3) at 24 °C for 16 h using 0.3 mM isopropyl β-D -1-thiogalactopyranoside (IPTG). E. coli cells were lysed using a pressure cell homogenizer (Stansted Fluid Power) and lysate clarified by centrifugation. His6-tagged VCB was purified on a HisTrap FF affinity column (GE Healthcare) by elution with an imidazole gradient. The His6tag was removed using TEV protease and the untagged complex dialyzed into low -concentration imidazole buffer. VCB was then flowed through the HisTrap FF column a second time, allowing impurities to bind, as the complex eluted without binding. VCB was then additionally purified by anion exchange and size-exclusion chromatography using ResourceQ and Superdex-75 columns (GE Healthcare), respectively. The final purified complex was stored in 20 mM Bis–Tris, pH 7, 150 mM sodium chloride and 1 mM dithiothreitol (DTT). Brd2BD1 (71–194), and Brd4BD2 (333–460) were expressed with an N-terminal His6 tag in E. coli BL21(DE3) at 18 °C for 20 h using 0.2 mM IPTG.
His6-tagged BDs were purified on nickel Sepharose 6 fast flow beads (GE Healthcare) by elution with increasing concentrations of imidazole. For crystallography the His6-tagged BD was cleaved with TEV protease and dialyzed into low-concentration imidazole buffer. The BD was then flowed over the nickel beads a second time to remove impurities and protease. BDs were then additionally purified by size-exclusion chromatography using a Superdex-75 column. The BDs were purified by size-exclusion chromatography using a Superdex-75 column. The final purified proteins were stored in 20 mM 4-(2-hydroxyethyl)-1-piperazineethanesulfonic acid (HEPES), pH 7.5, 150 mM sodium chloride and 1 mM DTT. All chromatography purification steps were performed using Äkta FPLC purification systems (GE Healthcare) or glass econo-columns (Bio-Rad) at room temperature.
Isothermal titration calorimetry (ITC) of peptides and ligands
Titrations were performed on an ITC200 micro-calorimeter (GE Healthcare). The peptides were dissolved in buffer (20 mM Bis–Tris propane, 100 mM NaCl, 1 mM tris(2-carboxyethyl)phosphine […]
(TCEP), pH 7.4) at 100 µM. The compounds were titrated against 10 µM VBC complex, equilibrated in the same buffer. The titrations consisted of 20 injections of 2 µL of peptide solution at a rate of 0.5 µL/s at 120 s time intervals. An initial injection of ligand (0.4 µL) was made and discarded during data analysis. All experiments were performed at 25°C while stirring at 650 rpm.
Ligands 14a- b were diluted from DMSO stock solution to 300 µM in buffer (20 mM Bis-Tris propane, 150 mM NaCl, 1 mM TCEP, pH 7.4). The compounds were titrated against 30 µM VBC complex, equilibrated in the same buffer. The final concentration of DMSO in each experiment was […]
The data were fitted to a single-binding-site model using the MicroCal PEAQ-ITC analysis software provided by the manufacturer to obtain the stoichiometry n, the dissociation constant K d, and the enthalpy of binding ΔH . The reported values are the mean ± s.e.m. from independent measurements.
Isothermal titration calorimetry (ITC)of PROTACs
The titrations were all performed as reverse mode (protein in syringe, ligand in cell) and consisted of 19 injections of 2 µl protein solution (20 mM Bis–Tris propane, 100 mM NaCl, 1 mM tris(2-carboxyethyl)phosphine (TCEP), pH 7.4) at a rate of 0.5 µl/s at 120 s time intervals. An initial injection (0.4 µl) was made and discarded during data analysis. […]

Each structure is given as a SMILES string.

From article PMC6430500, “3-Fluoro-4-hydroxyprolines: Synthesis, Conformational Analysis, and Stereoselective Recognition by the VHL E3 Ubiquitin Ligase for Targeted Protein Degradation” (Journal of the American Chemical Society, 2018) come the findings set out here.

On to `Cc1ncsc1-c1ccc(CNC(=O)[C@@H]2[C@H](F)[C@@H](O)CN2C(=O)[C@@H](NC(=O)COCCOCCOCCNC(=O)C[C@@H]2N=C(c3ccc(Cl)cc3)c3c(sc(C)c3C)-n3c(C)nnc32)C(C)(C)C)cc1` [15b], for which the “effect on cell growth, colony formation (in words)” value in test [1] is listed as “affected cell growth only modestly”. Besides, in test [2], the “α (cooperativity)” value is 1.2, binding was put at a Kd of 500 ± 96 nM, the ΔG is reported as -8.6 ± 0.1 kcal/mol and the ΔH is -5.1 ± 0.2 kcal/mol. For the same molecule, in test [2], the “–TΔS” value is -3.6 ± 0.3 kcal/mol and the ΔΔG is reported as -0.1 ± 0.1 kcal/mol.
Regarding `Cc1ncsc1-c1ccc(CNC(=O)[C@@H]2[C@@H](F)[C@@H](O)CN2C(=O)[C@@H](NC(=O)COCCOCCOCCNC(=O)C[C@@H]2N=C(c3ccc(Cl)cc3)c3c(sc(C)c3C)-n3c(C)nnc32)C(C)(C)C)cc1` [15a], the “effect on cell growth, colony formation (in words)” value in test [1] is listed as “profound concentration-dependent cytotoxicity”. In test [2], the “α (cooperativity)” value turned out to be 3.9, the Kd was determined as 64 ± 3 nM, the ΔG was -9.85 ± 0.05 kcal/mol and the ΔH is -9.17 kcal/mol. In addition, in test [2], the “–TΔS” value was -0.6 ± 0.6 kcal/mol and the ΔΔG is -0.85 kcal/mol.
